Results published in publication PMC7066280 (Investigational New Drugs, 2019).
Entries after “also recorded” stand apart in the source; their conditions may differ. Read-outs that look alike come from different tables or passages of the source.

Key:
tumor 2-HG = assay: 2-HG in paired tumor biopsy samples; type: in vivo; conditions: Homo sapiens; 500 mg QD multiple doses, cycle 3 day 1 and cycle 7 day 1, paired biopsies, 21 patients, all tumor types; read-out: 2-HG inhibition in tumors
Experimental: Tumor biopsies were also collected for 2-HG assessment at screening, and at day 1 of cycle 3. Further biopsies were collected depending on the status of disease at cycle 7, day 1 or at any time that disease progression was suspected and/or at the end of treatment.
(§1) Plasma ivosidenib was measured using two validated liquid chromatography-tandem mass spectrometry (LC-MS/MS) methods. The lower limit of quantification (LLOQ) was 1.00 ng/mL (low-range assay) or 50.0 ng/mL (high-range assay). […] Plasma 2-HG concentrations were measured using a qualified LC-MS/MS method with an LLOQ of 30.0 ng/mL. Concentrations of 2-HG in tumor biopsy samples were quantified using qualified LC-MS/MS methods with an LLOQ of 7.5 μg/g for brain tumor homogenate, 100 ng/g for liver tumor homogenate (low-range assay), and 30 μg/g for liver tumor homogenate (high-range assay). Plasma 4β-OHC and cholesterol were measured using a validated LC-MS/MS method. The LLOQ was 5 ng/mL for 4β-OHC and 25 μg/mL for cholesterol in human plasma.

[1] = Effect of intrinsic and extrinsic factors on ivosidenib CLss/F; type: in vivo, human; conditions: 500 mg QD, cycle 2 day 1
Experimental: Continuous factors assessed included age, body weight, body mass index, baseline creatinine clearance (CLcr), baseline estimated glomerular filtration rate (eGFR), and markers of hepatic function (alanine aminotransferase [ALT], alkaline phosphatase [ALP], aspartate aminotransferase [AST], bilirubin, total protein, and albumin). CLcr was calculated using the Cockcroft and Gault equation and eGFR was calculated using the Modification of Diet in Renal Disease – National Kidney Disease Education Program equations [15]. Categorical factors assessed included sex, ethnicity, race, disease status, concomitant CYP3A4 inhibitor and inducer status, baseline hepatic and renal function category, and tumor type. Renal function was categorized as normal (CLcr ≥ 90 mL/min or eGFR ≥90 mL/min/1.73 m^2), mild impairment (CLcr ≥ 60–89 mL/min or eGFR ≥60–89 mL/min/1.73 m^2), moderate impairment (CLcr ≥ 30–59 mL/min or eGFR ≥30–59 mL/min/1.73 m^2), and severe impairment (CLcr ≥ 15–29 mL/min or eGFR ≥15–29 mL/min/1.73 m^2). Hepatic function category was based on National Cancer Institute (NCI) organ dysfunction working group (ODWG) criteria for hepatic dysfunction (0 = normal, 1 = mild, 2 = moderate, 3 = severe, 4 = liver transplant).

[2] = Ivosidenib plasma PK after multiple oral doses (dose escalation); type: in vivo, human; conditions: for Cmax / AUC(0-t) / AUC / Tmax: human, plasma, oral; for Cmax / AUC(0-t) / AUC: geometric mean; for AUC(0-t): read-out: AUC0-10hr; for AUC: read-out: AUC0-tau
Experimental: In the dose escalation portion, patients with 1) glioma and 2) non-glioma solid tumors were enrolled into sequential cohorts using a standard 3 + 3 design. […] At least 3 patients in each cohort also received a single dose 3 days prior to the start of multiple dosing (i.e., day −3).
These samples were optional for any further patients enrolled in these cohorts. Further blood samples were collected from all patients up to 10 h postdose on cycle 1, day 15 and cycle 2, day 1. A subset of samples was also used for evaluation of plasma 4β-hydroxycholesterol (4β-OHC) and 4β-OHC:cholesterol ratios. Blood samples for assessment of 2-HG only were also collected at screening.
as §1
PK parameters included area under the plasma concentration-time curve (AUC), maximum plasma concentration (Cmax), time to maximum plasma concentration (Tmax), terminal elimination half-life (t1/2), and apparent oral clearance at steady state (CLss/F). Accumulation ratio (Racc), based on Cmax and AUC, was also assessed during the dose escalation portion. PD (2-HG) parameters included baseline-effect value, area under the effect concentration-time curve (AUEC0-10h for the dose escalation portion, or AUEC0-8h for the dose escalation and expansion portions), percent change from baseline in AUEC (%BAUEC0-10h for the escalation portion, or %BAUEC0-8h for the dose escalation and expansion portions), average plasma concentration (Cavg), and percent inhibition for Cavg (%BCavg). For the dose escalation portion, the time-matched ratios of 4β-OHC to cholesterol were calculated.

[3] = 100 mg, non-glioma solid tumors, 100 mg BID, cycle 2 day 1
[4] = 300 mg, glioma, 300 mg QD, cycle 2 day 1
[5] = 300 mg, non-glioma solid tumors, 300 mg QD, cycle 2 day 1
[6] = 400 mg, non-glioma solid tumors, 400 mg QD, cycle 2 day 1
[7] = 500 mg, glioma, 500 mg QD, cycle 2 day 1
[8] = 500 mg, non-glioma solid tumors, 500 mg QD, cycle 2 day 1
[9] = 600 mg, glioma, 600 mg QD, cycle 2 day 1
[10] = 800 mg, non-glioma solid tumors, 800 mg QD, cycle 2 day 1
[11] = 900 mg, glioma, 900 mg QD, cycle 2 day 1
[12] = 1200 mg, non-glioma solid tumors, 1,200 mg QD, cycle 2 day 1

**Q.** For `N#Cc1ccnc(N2C(=O)CC[C@H]2C(=O)N(c2cncc(F)c2)[C@H](C(=O)NC2CC(F)(F)C2)c2ccccc2Cl)c1` [ivosidenib], which inhibition at 500 mg (tumor 2-HG) is on record?
**A.** Its inhibition at 500 mg is no more than 100%.

**Q.** What about the “effect of concomitant weak CYP3A4 inhibitors or inducers on CLss/F” value [1] of the same compound?
**A.** The value was “no apparent effect; also recorded: did not appear to affect”.

**Q.** What about the “effect of mild or moderate renal impairment or mild hepatic impairment on CLss/F” value [1] of the same compound?
**A.** The value was “no apparent effect”.

**Q.** What about the “accumulation at steady state” value ([2]; day 15) of the same compound?
**A.** Its value is “approximately 1.5 fold”.

**Q.** And the Cmax [2, 3]?
**A.** The Cmax was 3560 ng/mL.

**Q.** What about the AUC(0-t) [2, 3] of the same compound?
**A.** The AUC(0-t) was 28600 ng·h/mL.

**Q.** What about the AUC [2, 3] of the same compound?
**A.** Its AUC is 33600 ng·h/mL.

**Q.** What about the Tmax ([2]; 100 mg, non-glioma solid tumors, 100 mg BID, cycle 2 day 1, median, read-out: Tmax) of the same compound?
**A.** Its Tmax is 2.5 h.

**Q.** And the Cmax [2, 4]?
**A.** Its Cmax is 3290 ng/mL.

**Q.** And the AUC(0-t) [2, 4]?
**A.** The AUC(0-t) was 23700 ng·h/mL.

**Q.** And the AUC [2, 4]?
**A.** Its AUC is 50800 ng·h/mL.

**Q.** What about the Tmax ([2]; 300 mg, glioma, 300 mg QD, cycle 2 day 1, median, read-out: Tmax) of the same compound?
**A.** The Tmax was 2.54 h.

**Q.** And the Cmax [2, 5]?
**A.** The Cmax was 3160 ng/mL.

**Q.** What about the AUC(0-t) [2, 5] of the same compound?
**A.** Its AUC(0-t) is 23400 ng·h/mL.

**Q.** What about the AUC [2, 5] of the same compound?
**A.** The AUC was 53200 ng·h/mL.

**Q.** What about the Tmax ([2]; 300 mg, non-glioma solid tumors, 300 mg QD, cycle 2 day 1, median, read-out: Tmax) of the same compound?
**A.** Its Tmax is 2.05 h.

**Q.** And the Cmax [2, 6]?
**A.** Its Cmax is 6800 ng/mL.

**Q.** What about the AUC(0-t) [2, 6] of the same compound?
**A.** Its AUC(0-t) is 51600 ng·h/mL.

**Q.** And the Tmax ([2]; 400 mg, non-glioma solid tumors, 400 mg QD, cycle 2 day 1, median, read-out: Tmax)?
**A.** Its Tmax is 3.03 h.

**Q.** What about the Cmax [2, 7] of the same compound?
**A.** Its Cmax is 2900 ng/mL.

**Q.** And the AUC(0-t) [2, 7]?
**A.** The AUC(0-t) was 20500 ng·h/mL.

**Q.** What about the AUC [2, 7] of the same compound?
**A.** The AUC was 44400 ng·h/mL.

**Q.** What about the Tmax ([2]; 500 mg, glioma, 500 mg QD, cycle 2 day 1, median, read-out: Tmax) of the same compound?
**A.** Its Tmax is 2 h.

**Q.** What about the Cmax [2, 8] of the same compound?
**A.** The Cmax was 4420 ng/mL.

**Q.** What about the AUC(0-t) [2, 8] of the same compound?
**A.** Its AUC(0-t) is 33900 ng·h/mL.

**Q.** And the AUC [2, 8]?
**A.** The AUC was 72800 ng·h/mL.

**Q.** And the Tmax ([2]; 500 mg, non-glioma solid tumors, 500 mg QD, cycle 2 day 1, median, read-out: Tmax)?
**A.** Its Tmax is 2.96 h.

**Q.** And the Cmax [2, 9]?
**A.** The Cmax was 3800 ng/mL.

**Q.** What about the AUC(0-t) [2, 9] of the same compound?
**A.** The AUC(0-t) was 29100 ng·h/mL.

**Q.** And the AUC [2, 9]?
**A.** Its AUC is 59800 ng·h/mL.

**Q.** What about the Tmax ([2]; 600 mg, glioma, 600 mg QD, cycle 2 day 1, median, read-out: Tmax) of the same compound?
**A.** The Tmax was 2 h.

**Q.** What about the Cmax [2, 10] of the same compound?
**A.** Its Cmax is 6050 ng/mL.

**Q.** And the AUC(0-t) [2, 10]?
**A.** The AUC(0-t) was 44500 ng·h/mL.

**Q.** What about the Tmax ([2]; 800 mg, non-glioma solid tumors, 800 mg QD, cycle 2 day 1, median, read-out: Tmax) of the same compound?
**A.** The Tmax was 2 h.

**Q.** And the Cmax [2, 11]?
**A.** Its Cmax is 4100 ng/mL.

**Q.** What about the AUC(0-t) [2, 11] of the same compound?
**A.** The AUC(0-t) was 31100 ng·h/mL.

**Q.** What about the AUC [2, 11] of the same compound?
**A.** The AUC was 64500 ng·h/mL.

**Q.** What about the Tmax ([2]; 900 mg, glioma, 900 mg QD, cycle 2 day 1, median, read-out: Tmax) of the same compound?
**A.** The Tmax was 2.52 h.

**Q.** And the Cmax [2, 12]?
**A.** The Cmax was 7580 ng/mL.

**Q.** And the AUC(0-t) [2, 12]?
**A.** The AUC(0-t) was 57700 ng·h/mL.

**Q.** What about the AUC [2, 12] of the same compound?
**A.** Its AUC is 120000 ng·h/mL.

**Q.** What about the Tmax ([2]; 1200 mg, non-glioma solid tumors, 1,200 mg QD, cycle 2 day 1, median, read-out: Tmax) of the same compound?
**A.** The Tmax was 2.92 h.

**Q.** What about the Tmax ([2]; after multiple doses, glioma and non-glioma solid tumors, read-out: median Tmax) of the same compound?
**A.** Its Tmax is 2 to 3 h.

**Q.** And the “steady state reached by” value ([2]; multiple dosing, cycle 1)?
**A.** Its value is no more than 15 days.

**Q.** What about the “steady state for ivosidenib plasma exposure and plasma 2-HG inhibition reached within” value ([2]; of cycle 1) of the same compound?
**A.** The value was no more than 14 days.
